Here are results for 6 substances from patent publication US20230263822A1, “MODULATION OF FACTOR 11 EXPRESSION” (Ionis Pharmaceuticals, Inc., priority 2008, published 2023).

Series [1] can be described thus: Tolerability in CD1 mice: organ weight (Example 33). Format: in vivo. To be noted: 50 mg/kg s.c. twice a week, vs PBS control, normalized to body weight. As for the experimental part: Three days after the last dose was administered to all groups, the mice were sacrificed.
Details of series [2]: species or system CD1 mice. To be noted: mouse, in vivo. As for the experimental part: Five mice from each group were sacrificed 3 days, 28 days and 56 days following the final dose. Livers were harvested for analysis.
The concentration of the full-length oligonucleotide as well as the total oligonucleotide concentration (including the degraded form) was measured. The method used is a modification of previously published methods (Leeds et al., 1996; Geary et al., 1999) which consist of a phenol-chloroform (liquid-liquid) extraction followed by a solid phase extraction. An internal standard (ISIS 355868, a 27-mer 2′-O-methoxyethyl modified phosphorothioate oligonucleotide, […], designated herein as SEQ ID NO: 270) was added prior to extraction. […] Half-lives were then calculated using WinNonlin software ([…]).
The results are presented in Tables 68 and 69, expressed as μg/g liver tissue.

A short description of series [3]: Tolerability in Sprague-Dawley rats: body weight and organ weight (Example 35). The format is in vivo. The settings on record: 50 mg/kg s.c. twice per week for 6 weeks; for Percent change: Body weight: percent change over the weights at the start of the study; for Percent change in organ weight: Kidney / Percent change in organ weight: Liver / Percent change in organ weight: Spleen: vs saline control, normalized to body weight. From the text:
Urine samples were taken before the start of treatment.
The body weights are presented in Table 71 and are expressed as a percent change over the weights taken at the start of the study.

Details of series [4]: species or system Sprague-Dawley rats. To be noted: rat, in vivo. As for the experimental part: Three days after the last dose, the rats were sacrificed and livers and kidneys were collected for analysis.
The concentration of the full-length oligonucleotide as well as the total oligonucleotide concentration (including the degraded form) was measured. The method used is a modification of previously published methods (Leeds et al., 1996; Geary et al., 1999) which consist of a phenol-chloroform (liquid-liquid) extraction followed by a solid phase extraction. An internal standard (ISIS 355868, a 27-mer 2′-O-methoxyethyl modified phosphorothioate oligonucleotide, […], designated herein as SEQ ID NO: 270) was added prior to extraction. […] The results are presented in Tables 77 and 78, expressed as μg/g liver or kidney tissue. Half-lives were then calculated using WinNonlin software ([…]).

A short description of series [5]: Viscosity of ISIS antisense oligonucleotides, micro-viscometer at 25 °C (Example 47). Format: physicochemical. The settings on record: for Concentration: concentration of the viscosity sample, UV reading at 260 nM at 85° C.; for Viscosity: in water, micro-viscometer at 25° C., at the concentration of the same line. The method, boiled down:
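Oligonucleotide (32-35 mg) was dissolved in 120 μL water by heating at 50° C, and viscosity was measured by micro-viscometer at 25° C. Concentration was checked by UV at 260 nm at 85° C on a dilution in water. Screening cut-off: >40 cP at 165-185 mg/mL.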

As to “416850 (antisense TGCACAGTTTCTGGCAGGCC; 5-10-5 gapmer, further chemistry not given here) [compound 416850]”, in series [1] (2 weeks), the “Percent change in kidney weight” value is listed as −0%, the “Percent change in liver weight” value is reported as “+5%” and the “Percent change in spleen weight” value was −4%. For the same substance, in series [1] (4 weeks), the “Percent change in kidney weight” value is listed as −12%, the “Percent change in liver weight” value is recorded as “+3%” and the “Percent change in spleen weight” value was “+6%”. In series [1] (6 weeks), the “Percent change in kidney weight” value was −11%, the “Percent change in liver weight” value was “+6%” and the “Percent change in spleen weight” value is “+48%”. Besides, the “Half-Life in the liver” value in series [2] is 18 days. In addition, in series [3], the “Percent change: Body weight” value is given as −33%, the “Percent change in organ weight: Kidney” value is given as “+47%”, the “Percent change in organ weight: Liver” value is “+23%” and the “Percent change in organ weight: Spleen” value is reported as “+354%”. Also, the “Half-life in the liver and kidney” value in series [4] is recorded as 18 days. In series [5], this substance returned a Concentration of 152 mg/mL and a Viscosity of 67 cP.
Regarding “416858 (antisense ACGGCATTGGTGCACAGTTT; 5-10-5 gapmer, further chemistry not given here) [compound 416858]”, in series [1] (2 weeks), the “Percent change in kidney weight” value is given as “+1%”, the “Percent change in liver weight” value was “+7%” and the “Percent change in spleen weight” value was −2%. In series [1] (4 weeks), the “Percent change in kidney weight” value was −18%, the “Percent change in liver weight” value is “+1%” and the “Percent change in spleen weight” value was “+8%”. In series [1] (6 weeks), the “Percent change in kidney weight” value was −10%, the “Percent change in liver weight” value is reported as “+10%” and the “Percent change in spleen weight” value is “+28%”. The “Half-Life in the liver” value in series [2] was found to be 26 days. Also, in series [3], the “Percent change: Body weight” value is reported as −21%, the “Percent change in organ weight: Kidney” value is “+5%”, the “Percent change in organ weight: Liver” value was “+8%” and the “Percent change in organ weight: Spleen” value is on record as “+187%”. For the same substance, in series [4], the “Half-life in the liver and kidney” value came out at 26 days. Moreover, in series [5], the Concentration is 166 mg/mL and the Viscosity stood at 10 cP.
Regarding “416925 (antisense GGTGCACAGTTTCTGGCAGG; 3-14-3 gapmer chemistry, further chemistry not given here) [compound 416925]”, in series [1] (2 weeks), the “Percent change in kidney weight” value is reported as −4%, the “Percent change in liver weight” value is reported as “+14%” and the “Percent change in spleen weight” value is listed as −7%. For the same substance, in series [1] (4 weeks), the “Percent change in kidney weight” value is listed as −14%, the “Percent change in liver weight” value is “+14%” and the “Percent change in spleen weight” value is given as “+33%”. In series [1] (6 weeks), the “Percent change in kidney weight” value was −2%, the “Percent change in liver weight” value is recorded as “+33%” and the “Percent change in spleen weight” value is given as “+78%”. In addition, in series [2], the “Half-Life in the liver” value amounted to 12 days. In series [3], the “Percent change: Body weight” value is listed as −32%, the “Percent change in organ weight: Kidney” value is reported as “+48%”, the “Percent change in organ weight: Liver” value is given as “+44%” and the “Percent change in organ weight: Spleen” value is reported as “+371%”. Besides, the “Half-life in the liver and kidney” value in series [4] was found to be 12 days.
Turning to “416999 (antisense GCACAGTTTCTGGCAGGCCT; 2-13-5 gapmer chemistry, further chemistry not given here) [compound 416999]”, in series [1] (2 weeks), the “Percent change in kidney weight” value is recorded as −9%, the “Percent change in liver weight” value was “+13%” and the “Percent change in spleen weight” value was “+7%”. Also, in series [1] (4 weeks), the “Percent change in kidney weight” value was −6%, the “Percent change in liver weight” value was “+30%” and the “Percent change in spleen weight” value is on record as “+22%”. Besides, in series [1] (6 weeks), the “Percent change in kidney weight” value was −7%, the “Percent change in liver weight” value is on record as “+47%” and the “Percent change in spleen weight” value is given as “+38%”. In addition, in series [2], the “Half-Life in the liver” value worked out at 9 days. In addition, in series [3], the “Percent change: Body weight” value was −37%, the “Percent change in organ weight: Kidney” value was “+71%”, the “Percent change in organ weight: Liver” value is listed as “+51%” and the “Percent change in organ weight: Spleen” value is listed as “+405%”. For the same substance, the “Half-life in the liver and kidney” value in series [4] amounted to 9 days.
Consider “417002 (antisense GGTGCACAGTTTCTGGCAGG; 2-13-5 gapmer chemistry, further chemistry not given here) [compound 417002]”, for which, in series [1] (2 weeks), the “Percent change in kidney weight” value was “+3%”, the “Percent change in liver weight” value is “+14%” and the “Percent change in spleen weight” value is given as “+29%”. Also, in series [1] (4 weeks), the “Percent change in kidney weight” value is −5%, the “Percent change in liver weight” value was “+8%” and the “Percent change in spleen weight” value is “+26%”. In addition, in series [1] (6 weeks), the “Percent change in kidney weight” value is given as −2%, the “Percent change in liver weight” value is reported as “+35%” and the “Percent change in spleen weight” value is given as “+108%”. Further, the “Half-Life in the liver” value in series [2] is 11 days. Moreover, in series [3], the “Percent change: Body weight” value was −29%, the “Percent change in organ weight: Kidney” value is recorded as “+63%”, the “Percent change in organ weight: Liver” value is “+27%” and the “Percent change in organ weight: Spleen” value is listed as “+446%”. In addition, the “Half-life in the liver and kidney” value in series [4] came to 11 days.
“417003 (antisense TGGTGCACAGTTTCTGGCAG; 2-13-5 gapmer chemistry, further chemistry not given here) [compound 417003]”: in series [1] (2 weeks), the “Percent change in kidney weight” value is on record as −9%, the “Percent change in liver weight” value was “+8%” and the “Percent change in spleen weight” value was “+12%”. Also, in series [1] (4 weeks), the “Percent change in kidney weight” value was −2%, the “Percent change in liver weight” value is “+42%” and the “Percent change in spleen weight” value is recorded as “+101%”. In series [1] (6 weeks), the “Percent change in kidney weight” value is given as −1%, the “Percent change in liver weight” value is reported as “+32%” and the “Percent change in spleen weight” value is on record as “+98%”. Moreover, the “Half-Life in the liver” value in series [2] amounted to 10 days. Further, in series [3], the “Percent change: Body weight” value is reported as −40%, the “Percent change in organ weight: Kidney” value is “+25%”, the “Percent change in organ weight: Liver” value was “+51%” and the “Percent change in organ weight: Spleen” value is “+522%”. Besides, the “Half-life in the liver and kidney” value in series [4] is given as 10 days.
